Experimental data from the NIST ThermoML archive (doi:10.1016/j.tca.2008.05.004).
Several values for one entry are separate records, joined by “and”; a condition that tells them apart may be missing. Identical values can stand only once.

Experiment: molar heat capacity at constant pressure
Conditions: 101.33 kPa, Crystal, Small (less than 1 g) adiabatic calorimetry

O=P([O-])([O-])[O-].[La+3] [lanthanum orthophosphate]
Conditions | molar heat capacity at constant pressure
2 K | 0.00122 J/K/mol
4 K | 0.01153 J/K/mol
6 K | 0.03674 J/K/mol
8 K | 0.08437 J/K/mol
10 K | 0.1669 J/K/mol
12 K | 0.2994 J/K/mol
14 K | 0.4971 J/K/mol
16 K | 0.7738 J/K/mol
18 K | 1.141 J/K/mol
20 K | 1.605 J/K/mol
25 K | 3.201 J/K/mol
25.03 K | 3.418 J/K/mol
25.8 K | 3.691 J/K/mol
26.57 K | 3.997 J/K/mol
27.34 K | 4.269 J/K/mol
28.12 K | 4.62 J/K/mol
28.89 K | 4.94 J/K/mol
29.68 K | 5.294 J/K/mol
30 K | 5.306 J/K/mol
30.46 K | 5.695 J/K/mol
31.24 K | 6.098 J/K/mol
32.03 K | 6.511 J/K/mol
32.86 K | 6.925 J/K/mol
33.65 K | 7.346 J/K/mol
34.44 K | 7.659 J/K/mol
35 K | 7.89 J/K/mol
35.24 K | 8.049 J/K/mol
36.04 K | 8.576 J/K/mol
36.84 K | 9.023 J/K/mol
37.64 K | 9.523 J/K/mol
38.44 K | 9.994 J/K/mol
39.25 K | 10.48 J/K/mol
40 K | 10.82 J/K/mol
40.05 K | 10.95 J/K/mol
40.86 K | 11.44 J/K/mol
41.67 K | 11.92 J/K/mol
42.48 K | 12.4 J/K/mol
43.29 K | 12.88 J/K/mol
44.1 K | 13.34 J/K/mol
44.92 K | 13.87 J/K/mol
45 K | 13.97 J/K/mol
45.76 K | 14.39 J/K/mol
48.2 K | 16.03 J/K/mol
49.02 K | 16.52 J/K/mol
49.84 K | 17.11 J/K/mol
50 K | 17.23 J/K/mol
50.65 K | 17.64 J/K/mol
51.47 K | 18.19 J/K/mol
52.29 K | 18.72 J/K/mol
53.11 K | 19.27 J/K/mol
53.93 K | 19.79 J/K/mol
54.75 K | 20.27 J/K/mol
55.57 K | 20.78 J/K/mol
56.4 K | 21.36 J/K/mol
57.22 K | 21.86 J/K/mol
58.04 K | 22.41 J/K/mol
58.89 K | 22.97 J/K/mol
59.72 K | 23.49 J/K/mol
60 K | 23.73 J/K/mol
60.54 K | 24.01 J/K/mol
61.37 K | 24.55 J/K/mol
62.2 K | 25.1 J/K/mol
63.03 K | 25.6 J/K/mol
63.86 K | 26.14 J/K/mol
64.69 K | 26.66 J/K/mol
65.52 K | 27.24 J/K/mol
66.35 K | 27.76 J/K/mol
67.19 K | 28.22 J/K/mol
68.02 K | 28.62 J/K/mol
68.86 K | 29.07 J/K/mol
69.7 K | 29.48 J/K/mol
70 K | 29.93 J/K/mol
70.93 K | 30.26 J/K/mol
72.58 K | 31.21 J/K/mol
73.58 K | 31.56 J/K/mol
74.82 K | 32.17 J/K/mol
76.07 K | 33.31 J/K/mol
77.32 K | 33.78 J/K/mol
78.55 K | 34.74 J/K/mol
80 K | 35.68 J/K/mol
80.58 K | 36.06 J/K/mol
82.23 K | 36.9 J/K/mol
83.88 K | 37.58 J/K/mol
85.53 K | 38.39 J/K/mol
87.18 K | 39.57 J/K/mol
88.83 K | 40.58 J/K/mol
90 K | 40.96 J/K/mol
90.48 K | 41.33 J/K/mol
92.13 K | 42.17 J/K/mol
93.78 K | 42.97 J/K/mol
95.43 K | 43.79 J/K/mol
97.08 K | 44.53 J/K/mol
100 K | 45.82 J/K/mol
101.86 K | 46.91 J/K/mol
102.42 K | 47.17 J/K/mol
104.27 K | 47.95 J/K/mol
104.88 K | 48.25 J/K/mol
106.71 K | 49.05 J/K/mol
107.34 K | 49.42 J/K/mol
109.16 K | 50.14 J/K/mol
109.8 K | 50.46 J/K/mol
110 K | 50.3 J/K/mol
111.6 K | 51.16 J/K/mol
112.25 K | 51.55 J/K/mol
114.04 K | 52.08 J/K/mol
114.7 K | 52.52 J/K/mol
116.47 K | 53.12 J/K/mol
117.16 K | 53.55 J/K/mol
119.61 K | 54.49 J/K/mol
120 K | 54.48 J/K/mol
122.06 K | 55.51 J/K/mol
124.51 K | 56.3 J/K/mol
126.96 K | 57.27 J/K/mol
129.4 K | 58.21 J/K/mol
130 K | 58.4 J/K/mol
131.85 K | 59.09 J/K/mol
134.29 K | 59.99 J/K/mol
136.73 K | 60.84 J/K/mol
139.17 K | 61.67 J/K/mol
140 K | 62.1 J/K/mol
141.61 K | 62.6 J/K/mol
144.05 K | 63.49 J/K/mol
146.46 K | 64.31 J/K/mol
148.9 K | 65.12 J/K/mol
150 K | 65.6 J/K/mol
151.33 K | 65.92 J/K/mol
153.76 K | 66.8 J/K/mol
156.18 K | 67.59 J/K/mol
158.61 K | 68.21 J/K/mol
160 K | 68.93 J/K/mol
161.03 K | 69.15 J/K/mol
163.45 K | 69.96 J/K/mol
165.87 K | 70.75 J/K/mol
168.29 K | 71.39 J/K/mol
170 K | 72.09 J/K/mol
170.7 K | 72.25 J/K/mol
173.11 K | 73.03 J/K/mol
175.52 K | 73.72 J/K/mol
177.92 K | 74.42 J/K/mol
180 K | 75.12 J/K/mol
180.31 K | 75.07 J/K/mol
182.7 K | 75.83 J/K/mol
185.04 K | 76.53 J/K/mol
187.44 K | 77.24 J/K/mol
189.83 K | 77.9 J/K/mol
190 K | 78.01 J/K/mol
192.21 K | 78.51 J/K/mol
199.36 K | 80.46 J/K/mol
200 K | 80.78 J/K/mol
202.14 K | 81.27 J/K/mol
205.3 K | 82.08 J/K/mol
208.46 K | 82.89 J/K/mol
210 K | 83.44 J/K/mol
211.61 K | 83.64 J/K/mol
214.75 K | 84.46 J/K/mol
217.89 K | 85.24 J/K/mol
220 K | 85.98 J/K/mol
220.27 K | 86.55 J/K/mol
223.51 K | 87.38 J/K/mol
226.73 K | 88.15 J/K/mol
229.94 K | 88.77 J/K/mol
230 K | 88.41 J/K/mol
233.13 K | 89.33 J/K/mol
236.34 K | 89.95 J/K/mol
239.53 K | 90.87 J/K/mol
240 K | 90.75 J/K/mol
242.69 K | 91.56 J/K/mol
245.83 K | 92.05 J/K/mol
248.99 K | 92.61 J/K/mol
250 K | 92.99 J/K/mol
252.14 K | 93.33 J/K/mol
255.28 K | 94.2 J/K/mol
258.37 K | 94.93 J/K/mol
260 K | 95.13 J/K/mol
261.31 K | 95.4 J/K/mol
264.37 K | 95.93 J/K/mol
267.41 K | 96.5 J/K/mol
270 K | 97.19 J/K/mol
270.48 K | 97.19 J/K/mol
273.52 K | 97.78 J/K/mol
276.54 K | 98.45 J/K/mol
279.55 K | 99 J/K/mol
280 K | 99.17 J/K/mol
282.53 K | 99.55 J/K/mol
285.49 K | 100.2 J/K/mol
288.42 K | 100.6 J/K/mol
290 K | 101.1 J/K/mol
291.33 K | 101.2 J/K/mol
294.21 K | 101.7 J/K/mol
297.05 K | 102.3 J/K/mol
299.79 K | 102.8 J/K/mol
300 K | 102.9 J/K/mol
302.76 K | 103.4 J/K/mol
306.59 K | 104.1 J/K/mol
310.93 K | 105 J/K/mol
315.5 K | 105.8 J/K/mol
320 K | 106.5 J/K/mol and 106.3 J/K/mol
324.45 K | 106.9 J/K/mol
340 K | 109.4 J/K/mol
360 K | 112.3 J/K/mol
373 K | 113.9 J/K/mol
400 K | 117.1 J/K/mol
450 K | 122 J/K/mol
500 K | 126 J/K/mol
550 K | 129.4 J/K/mol
600 K | 132.4 J/K/mol
650 K | 135.2 J/K/mol
700 K | 137.7 J/K/mol
750 K | 140.1 J/K/mol
800 K | 142.4 J/K/mol
850 K | 144.6 J/K/mol
900 K | 146.7 J/K/mol
950 K | 148.7 J/K/mol
1000 K | 150.8 J/K/mol
1050 K | 152.8 J/K/mol
1100 K | 154.7 J/K/mol
1150 K | 156.6 J/K/mol
1200 K | 158.5 J/K/mol
1250 K | 160.4 J/K/mol
1300 K | 162.3 J/K/mol
1350 K | 164.2 J/K/mol
1400 K | 166 J/K/mol
1450 K | 167.9 J/K/mol
1500 K | 169.7 J/K/mol
1550 K | 171.5 J/K/mol
1600 K | 173.4 J/K/mol
